{"source": "patent US4189426A", "about": "“Recombinant hormonal compositions and method” (Hoffmann-La Roche, Inc., priority 1978, dated 1980)", "key": {"pigeon crop-sac": {"tested_on": "pigeon crop-sac", "test": "local crop-sac assay in the pigeon (prolactin / lactogenic activity)", "type": "in vivo", "settings": "Table 10; total dose 120 μg; mean ± SEM, number of birds in parentheses", "experimental": "The growth-promoting activity of PL-HGH, the unpurified recombinant of Example 1 (fraction IV), [Cys(Cam)^53 -HGH-(1-134)], [Cys(Cam)^165, 182, 189 -HGH-(141-191)] and saline control were determined by the rat tibia test of Greenspan et al, Endocrinology 45, 455 (1949) and by the local crop-sac assay in the pigeon according to Lyons, Proc. Soc. Exp. Biol. 35, 645 (1937) and Nicoll, Endocrinology 80, 641 (1967). Amino acid compositions of acid and carboxypeptidase hydrolysates were determined in an automatic amino acid analyzer (model 120B, Beckman Instruments). For the analysis of tryptophan, the methanesulfonic acid hydrolysates were used. Amino-terminal residue and sequence analyses were preformed by the dansyl-Edman procedure. Isoelectric focusing was carried out in 8 M urea. Prolactin activity was estimated by the pigeon crop-sac assay. Microcomplement fixation experiments were performed with rabbit antisera to HCS. The gel-double-diffusion technique of Ouchterlony was done using 1% agar in 0.01 M phosphate buffer of pH 7.5. Exclusion chromatography of the purified fragments or the recombinant was performed on a Sephadex G-100 column (1.5×60 cm; V0 =35 ml) in 10 mM NH4 HCO3 (pH 8.4) at 21°. Circular dichroism (CD) spectra were obtained by a spectropolarimeter (Cary model 60) equipped with a circular dichroism attachment (model 6002). Microcomplement fixation was performed with the guinea pig antiserum to ovine prolactin. The gel double-diffusion technique of Ouchterlony was carried out with 1% agar in 10 mM phosphate buffer (pH 7.5). The prolactin activity was estimated by the local crop-sac assay in the pigeon."}, "antiserum to prolactin": {"tested_on": "antiserum to prolactin", "test": "gel double-diffusion technique of Ouchterlony", "type": "binding", "experimental": "Exclusion chromatography of the purified fragments or the recombinant was performed on a Sephadex G-100 column (1.5×60 cm; V0 =35 ml) in 10 mM NH4 HCO3 (pH 8.4) at 21°. Circular dichroism (CD) spectra were obtained by a spectropolarimeter (Cary model 60) equipped with a circular dichroism attachment (model 6002). Microcomplement fixation was performed with the guinea pig antiserum to ovine prolactin. The gel double-diffusion technique of Ouchterlony was carried out with 1% agar in 10 mM phosphate buffer (pH 7.5). The prolactin activity was estimated by the local crop-sac assay in the pigeon."}, "[1]": {"settings": "Birk and Li, Proc. Natl. Acad. Sci. U.S.A. 75(5), 2155 (1978); cited from earlier work"}, "[2]": {"test": "conformational, immunological and biological activity of Example 8 and 9 recombinants compared with native hormone", "settings": "Examples 8 and 9, present tense, no data"}}, "note": "No end group written: not given here.", "data": [{"substance": "PRL-(1-53): NH2-terminal portion, residues 1-53, of ovine prolactin from fibrinolysin digestion (TPVCPNGPGNCQVSLRDLFDRAVMVSHYIHNLSSEMFNEFDKRYAQGKGFITM; ends and bridges not checked; cysteine pairing not given here; UniProt P01240 31-83, looked up, fragment)", "values": [{"measurement": "Response (dry mucosal weight)", "setting": "pigeon crop-sac", "result": "10.1 ± 2.6", "unit": "mg"}, {"measurement": "precipitin line", "setting": "antiserum to prolactin", "result": "neither fragment gave a precipitin line"}, {"measurement": "biological activity, in words", "setting": "[1]", "result": "inactive"}]}, {"substance": "[Cys(Cam)^53 ]-HGH-(1-134)+(Lys^135,136,138, Glu^137,139, Nle^170, Ala^165,182,189)-HGH-(135-191)", "values": [{"measurement": "conformational, immunological and biological activity, in words", "setting": "[2]", "result": "analogous conformational, immunological and biological activity as native HGH"}]}]}
